Converted amounts (≈) assume the structure as drawn.
Tests used:
[1] = test system: Staphylococcus aureus SA1199B; assay type: cell-based
Protocol: (§1) The MIC's were determined using a standard broth micro-dilution assay.

[2] = test system: Staphylococcus aureus S13E; assay type: cell-based
Protocol: as §1

[3] = test system: vancomycin-susceptible enterococci; experiment: broth micro-dilution, mean geometric MIC; assay type: cell-based, Enterococcus faecium and Enterococcus faecalis; conditions: enterococci, 24-hour incubation
[4] = test system: Staphylococcus aureus 446; experiment: broth micro-dilution MIC; assay type: cell-based
Protocol: as §1

[5] = test system: Staphylococcus aureus 489; experiment: broth micro-dilution MIC; assay type: cell-based
Protocol: as §1

[6] = test system: Staphylococcus aureus SA1199A; experiment: broth micro-dilution MIC; assay type: cell-based
Protocol: as §1

[7] = test system: Staphylococcus aureus X400; experiment: broth micro-dilution MIC; assay type: cell-based
Protocol: as §1

[8] = test system: Entercoccus faecium 180-1; experiment: broth micro-dilution MIC; assay type: cell-based
Protocol: as §1

[9] = test system: Staphylococcus aureus X778; experiment: broth micro-dilution MIC; assay type: cell-based
Protocol: as §1

[10] = test system: Streptococcus pyogenes C203; experiment: broth micro-dilution MIC; assay type: cell-based
Protocol: as §1

[11] = test system: Staphylococcus aureus SA1199; experiment: broth micro-dilution MIC; assay type: cell-based
Protocol: as §1

Entercoccus faecium 276 = experiment: broth micro-dilution MIC; assay type: cell-based
Protocol: as §1

[12] = test system: Staphylococcus aureus 447; experiment: broth micro-dilution MIC; assay type: cell-based
Protocol: as §1

[13] = test system: Staphylococcus aureus 491; experiment: broth micro-dilution MIC; assay type: cell-based
Protocol: as §1

[14] = test system: vancomycin-resistant enterococci; experiment: broth micro-dilution, mean geometric MIC; assay type: cell-based, Enterococcus faecium and Enterococcus faecalis; conditions: enterococci, 24-hour incubation
Escherichia coli EC14 = experiment: broth micro-dilution MIC; assay type: cell-based
Protocol: (§2) The formula I compounds have in vitro and in vivo activity against Gram-positive pathogenic bacteria. The MIC's were determined using a standard broth micro-dilution assay.

Entercoccus faecium 180 = experiment: broth micro-dilution MIC; assay type: cell-based; conditions: Entercoccus faecium 180
Protocol: as §2

[15] = test system: Staphylococcus haemolyticus 105; experiment: broth micro-dilution MIC; assay type: cell-based
Protocol: as §2

[16] = test system: Streptococcus pneumoniae P1; experiment: broth micro-dilution MIC; assay type: cell-based
Protocol: as §2

[17] = test system: Staphylococcus epidermidis 270; experiment: broth micro-dilution MIC; assay type: cell-based
Protocol: as §2

[18] = test system: Staphylococcus haemolyticus 415; experiment: broth micro-dilution MIC; assay type: cell-based
Protocol: as §2

[19] = test system: Haemophilus influenzae RD; experiment: broth micro-dilution MIC; assay type: cell-based; conditions: Haemophilus influenzae RD
Protocol: as §2

Entercoccus faecium 2041 = experiment: broth micro-dilution MIC; assay type: cell-based; conditions: Entercoccus faecium 2041
Protocol: as §2

[20] = test system: Enterococcus gallinarum 245; experiment: broth micro-dilution MIC; assay type: cell-based; conditions: Enterococcus gallinarum 245
Protocol: as §2

| Compound | MIC [1] [mg/L] | mean geometric MIC, Vancomycin Sensitive Strains [3] [mg/L] | MIC [4] [mg/L] | MIC [5] [mg/L] | MIC [6] [mg/L] | MIC [7] [mg/L] | MIC [8] [mg/L] | MIC [9] [mg/L] | MIC [10] [mg/L] | MIC [11] [mg/L] | MIC (Entercoccus faecium 276) [mg/L] | MIC [12] [mg/L] | MIC [13] [mg/L] | mean geometric MIC, Vancomycin Resistant Strains [14] [mg/L] | MIC (Escherichia coli EC14) [mg/L] | MIC (Entercoccus faecium 180) [mg/L] | MIC [15] [mg/L] | MIC [16] [mg/L] | MIC [17] [mg/L] | MIC [18] [mg/L] | further results |
| --- | --- | --- | --- | --- | --- | --- | --- | --- | --- | --- | --- | --- | --- | --- | --- | --- | --- | --- | --- | --- | --- |
| CC(C)CC(C(=O)NC1C(=O)NC(CC(N)=O)C(=O)NC2C(=O)NC3C(=O)NC(C(=O)NC(C(=O)O)c4cc(O)cc(O)c4-c4cc3ccc4O)C(OC3CC(C)(N)C(O)C(C)O3)c3ccc(c(Cl)c3)Oc3cc2cc(c3OC2OC(CO)C(O)C(O)C2OC2CC(C)(NCc3ccc(N(C)c4ccccc4)cc3)C(O)C(C)O2)Oc2ccc(cc2Cl)C1O)N(C)Cc1ccc(N(C)c2ccccc2)cc1 (centres unmarked) [Compound 260] | 2 (≈ 1.01 µM) | 1.1 | 2 (≈ 1.01 µM) | 2 (≈ 1.01 µM) | 0.5 (≈ 0.252 µM) | 4 (≈ 2.02 µM) | 0.25 (≈ 0.126 µM) | 1 (≈ 0.504 µM) | ≤ 0.06 | 2 (≈ 1.01 µM) | 2 (≈ 1.01 µM) | 4 (≈ 2.02 µM) | 1 (≈ 0.504 µM) | 4.8 | > 64 | 0.5 (≈ 0.252 µM) | 1 (≈ 0.504 µM) | ≤ 0.06 | 1 (≈ 0.504 µM) | 2 (≈ 1.01 µM) | MIC [2]: 4 mg/L (≈ 2.02 µM); MIC [19]: > 64 mg/L; MIC (Entercoccus faecium 2041): 1 mg/L (≈ 0.504 µM); MIC [20]: 0.25 mg/L (≈ 0.126 µM) |
| CC(C)CC(C(=O)NC1C(=O)NC(CC(N)=O)C(=O)NC2C(=O)NC3C(=O)NC(C(=O)NC(C(=O)O)c4cc(O)cc(O)c4-c4cc3ccc4O)C(OC3CC(C)(N)C(O)C(C)O3)c3ccc(c(Cl)c3)Oc3cc2cc(c3OC2OC(CO)C(O)C(O)C2OC2CC(C)(NCc3ccc4c(c3)OCO4)C(O)C(C)O2)Oc2ccc(cc2Cl)C1O)N(C)Cc1ccc2c(c1)OCO2 (centres unmarked) [Compound 265] | 0.5 (≈ 0.269 µM) | 0.87 | 2 (≈ 1.07 µM) | 0.5 (≈ 0.269 µM) | ≤ 0.06 | 0.5 (≈ 0.269 µM) | ≤ 0.06 | 0.5 (≈ 0.269 µM) | ≤ 0.06 | 2 (≈ 1.07 µM) | 0.5 (≈ 0.269 µM) | 2 (≈ 1.07 µM) | 2 (≈ 1.07 µM) | 54 | > 64 | 8 (≈ 4.3 µM) | 8 (≈ 4.3 µM) | ≤ 0.06 | 4 (≈ 2.15 µM) | 1 (≈ 0.537 µM) | MIC [2]: 0.5 mg/L (≈ 0.269 µM); MIC [19]: > 64 mg/L; MIC (Entercoccus faecium 2041): 0.25 mg/L (≈ 0.134 µM); MIC [20]: 1 mg/L (≈ 0.537 µM) |
| CC(C)CC(C(=O)NC1C(=O)NC(CC(N)=O)C(=O)NC2C(=O)NC3C(=O)NC(C(=O)NC(C(=O)O)c4cc(O)cc(O)c4-c4cc3ccc4O)C(OC3CC(C)(N)C(O)C(C)O3)c3ccc(c(Cl)c3)Oc3cc2cc(c3OC2OC(CO)C(O)C(O)C2OC2CC(C)(NCc3ccccn3)C(O)C(C)O2)Oc2ccc(cc2Cl)C1O)N(C)Cc1ccccn1 (centres unmarked) [Compound 281] | 32 (≈ 18 µM) | 37 | 64 (≈ 36.1 µM) | 32 (≈ 18 µM) | 4 (≈ 2.25 µM) | > 64 | 4 (≈ 2.25 µM) | 16 (≈ 9.02 µM) | 0.5 (≈ 0.282 µM) | > 64 | 8 (≈ 4.51 µM) | > 64 | > 64 | > 128 | > 64 | > 64 | > 64 | ≤ 0.06 | > 64 | > 64 | MIC [2]: 32 mg/L (≈ 18 µM); MIC [19]: > 64 mg/L; MIC (Entercoccus faecium 2041): 8 mg/L (≈ 4.51 µM); MIC [20]: > 64 mg/L |
| CNC(CC(C)C)C(=O)NC1C(=O)NC(CC(N)=O)C(=O)NC2C(=O)NC3C(=O)NC(C(=O)NC(C(=O)O)c4cc(O)cc(O)c4-c4cc3ccc4O)C(OC3CC(C)(NCc4ccc(SC)cc4)C(O)C(C)O3)c3ccc(c(Cl)c3)Oc3cc2cc(c3OC2OC(CO)C(O)C(O)C2OC2CC(C)(NCc3ccc(SC)cc3)C(O)C(C)O2)Oc2ccc(cc2Cl)C1O (centres unmarked) [Compound 278] | 0.5 (≈ 0.268 µM) | 0.29 | 1 (≈ 0.536 µM) | 0.5 (≈ 0.268 µM) | 1 (≈ 0.536 µM) | 0.25 (≈ 0.134 µM) | ≤ 0.06 | 0.5 (≈ 0.268 µM) | ≤ 0.06 | 0.25 (≈ 0.134 µM) | 0.25 (≈ 0.134 µM) | 2 (≈ 1.07 µM) | 1 (≈ 0.536 µM) | 8 | > 64 | 1 (≈ 0.536 µM) | 0.5 (≈ 0.268 µM) | ≤ 0.06 | 1 (≈ 0.536 µM) | 2 (≈ 1.07 µM) | MIC [2]: 1 mg/L (≈ 0.536 µM); MIC [19]: > 64 mg/L; MIC (Entercoccus faecium 2041): 0.125 mg/L (≈ 0.067 µM); MIC [20]: 2 mg/L (≈ 1.07 µM) |
| CC(C)CC(C(=O)NC1C(=O)NC(CC(N)=O)C(=O)NC2C(=O)NC3C(=O)NC(C(=O)NC(C(=O)O)c4cc(O)cc(O)c4-c4cc3ccc4O)C(OC3CC(C)(N)C(O)C(C)O3)c3ccc(c(Cl)c3)Oc3cc2cc(c3OC2OC(CO)C(O)C(O)C2OC2CC(C)(NCc3c4ccccc4cc4ccccc34)C(O)C(C)O2)Oc2ccc(cc2Cl)C1O)N(C)Cc1c2ccccc2cc2ccccc12 (centres unmarked) [Compound 284] | 4 (≈ 2.03 µM) | 2.3 | 8 (≈ 4.05 µM) | 2 (≈ 1.01 µM) | 0.25 (≈ 0.127 µM) | 4 (≈ 2.03 µM) | 0.5 (≈ 0.253 µM) | 1 (≈ 0.507 µM) | ≤ 0.06 | 8 (≈ 4.05 µM) | 8 (≈ 4.05 µM) | 8 (≈ 4.05 µM) | 2 (≈ 1.01 µM) | 38 | > 64 | 8 (≈ 4.05 µM) | 32 (≈ 16.2 µM) | ≤ 0.06 | 16 (≈ 8.11 µM) | 32 (≈ 16.2 µM) | MIC [2]: 4 mg/L (≈ 2.03 µM); MIC [19]: > 64 mg/L; MIC (Entercoccus faecium 2041): 1 mg/L (≈ 0.507 µM); MIC [20]: 32 mg/L (≈ 16.2 µM) |
| CNC(CC(C)C)C(=O)NC1C(=O)NC(CC(N)=O)C(=O)NC2C(=O)NC3C(=O)NC(C(=O)NC(C(=O)O)c4cc(O)cc(O)c4-c4cc3ccc4O)C(OC3CC(C)(NCc4ccc([N+](=O)[O-])cc4)C(O)C(C)O3)c3ccc(c(Cl)c3)Oc3cc2cc(c3OC2OC(CO)C(O)C(O)C2OC2CC(C)(NCc3ccc([N+](=O)[O-])cc3)C(O)C(C)O2)Oc2ccc(cc2Cl)C1O (centres unmarked) [Compound 245] | ≤ 0.06 | 0.38 | ≤ 0.06 | ≤ 0.06 | ≤ 0.06 | ≤ 0.06 | ≤ 0.06 | ≤ 0.06 | 2 (≈ 1.07 µM) | 0.25 (≈ 0.134 µM) | ≤ 0.06 | ≤ 0.06 | 0.5 (≈ 0.268 µM) | 13 | 0.5 (≈ 0.268 µM) | 2 (≈ 1.07 µM) | 1 (≈ 0.537 µM) | 1 (≈ 0.537 µM) | 0.5 (≈ 0.268 µM) | 8 (≈ 4.29 µM) | MIC [19]: > 64 mg/L; MIC (Entercoccus faecium 2041): ≤ 0.06 mg/L; MIC [20]: ≤ 0.06 mg/L |

Source: patent US5840684A, “Glycopeptide antibiotic derivatives” (Eli Lilly and Company, priority 1995, dated 1998)
